Data set [1] has as its system azido-HaloTag protein (GST-HaloTag protein on GSH-Sepharose resin). Nature of the data set: Fluorescence labeling of azido-HaloTag protein by SPDC reaction, SDS-PAGE fluorescence imaging. Type of data set: biochemical.
Data set [2] concerns azido-glycoconjugates on the surface of HEK293 cells. The experiment in a line: Fluorescence labeling of azido-glycoconjugates on the surface of living cells. Type of data set: cell-based.
Data set [3] has as its system HEK293 cells. The experiment in a line: Cytotoxicity assay in living cells. Type of data set: cell-based. Conditions: 0 to 80 μM, incubation overnight. As for the experimental part: Finally, cytotoxicity assay of diyne 3 was performed in living cells. HEK293 cells were incubated and diyne 3 was added to the cells in a concentration of 0 to 80 μM, followed by incubation overnight. Morphological images of the cells after incubation, which were taken under a phase-contrast microscope and visualized with Adobe Photoshop CS2, are shown in FIG. 10.

Two compounds from patent US8901312B2, “Cyclic compound, method for producing cyclic compound, and method for modifying biological molecule” (JNC Corporation, priority 2010, dated 2014) can be followed below.

Where two headings read alike, the source gives them in different places.

As for `C1#Cc2ccccc2C#Cc2ccccc21` [diyne 3, sym-dibenzo-1,5-cyclooctadiene-3,7-diyne], in data set [1] (sequential SPDC reaction: diyne 3, wash, then TESRA-PEO3-azide (9)), the “fluorescence labeling efficiency of azido-HaloTag protein” value is “approximately 45%”. Besides, in data set [1] (simultaneous SPDC reaction with TESRA-PEO3-azide (9), relative to TESRA-HaloTag ligand (10) labeling taken as almost 100%), the “total labeling efficiency of TESRA-labeled HaloTag protein” value was around 40%. Moreover, the “reaction time at which labeling efficiency became maximum” value in data set [2] (40 μM diyne 3, HEK293 cells with azido-glycoconjugates, 0 to 48 minutes) is “approximately 20 minutes”. The “fluorescence labeling of cell surface azido-glycoconjugates (result in words)” value in data set [2] (HEK293 cells cultured with Ac4ManNAz) is listed as “a reliable fluorescence signal was detected”. In addition, the “cytotoxicity (cell morphology, phase-contrast microscope)” value in data set [3] is “did not show cytotoxicity”.
As to `O=C(NCCNC(=S)Nc1ccc2c(c1)C(=O)OC21c2ccc(O)cc2Oc2cc(O)ccc21)OC1Cc2ccccc2C#Cc2ccccc21` (stereo not drawn) [monoyne 22, 1-[2-{(11,12-didehydro-5,6-dihydrodibenzo[a,e]cycloocten-5-yl)oxycarbonylamino}ethyl]-3-(5-fluoresceinyl)thiourea], in data set [2], the “fluorescence labeling of cell surface azido-glycoconjugates (result in words)” value was “substantial difference in fluorescence labeling efficiency between the SPDC reaction and the single click reaction was hardly observed”.
